Measured values published in paper PMC9267955, “Antidiabetic, Antiglycation, and Antioxidant Activities of Ethanolic Seed Extract of Passiflora edulis and Piceatannol In Vitro” (Molecules, 2022).
Marks after values point to notes of the source that are not given here.

How the values were obtained:
BSA/MGO fluorescent AGEs = experiment: Inhibition of AGE formation, intermediate stage of glycation (BSA/MGO); assay type: biochemical, bovine; details: BSA/MGO model
Experimental: The BSA-MGO assay was based on those described before, with some modifications. This experiment is based on the formation of fluorescent AGEs from the middle stage of protein glycation. MGO (1.5 mM) and BSA (3 mg/mL) were dissolved separately in 0.05 M phosphate buffer (pH 7.4) containing NaCl (100 mM) and NaN3 (0.02% w/v). Then, 300 μL of MGO was incubated with samples at different concentrations (dissolved in a buffer containing 60% ethanol) for an hour at 37 °C, in the dark, with constant stirring. After BSA (3 mg/mL) was added to the reaction mixture and incubation time was extended to 48 h at 37 °C in darkness. The rest of the procedure was the same as that for the BSA-glucose/fructose model that is described above. The percentage of the AGE inhibition and IC50 was calculated as described in Section 3.3.1.

cultured myotubes = tested on: cultured myotubes; parameters: method as in PMID 25832644; details: in the absence of insulin; cited from earlier work
BEAS-2B cells = experiment: MTS cell viability assay; assay type: cell-based, human; details: 100 µg/mL (409 µM); 24 h
Experimental: BEAS-2B, MCF10-A, and AML-12, cells were purchased from the American Tissue Type Culture Collection (ATCC; CRL-9609, CRL-10317, and CRL-2254) and cultured with a specific medium. BEAS-2B cells were cultured with LHC-9 media at 37 °C in an incubator with 5% CO2. […] Cells were grown to around 70% confluence on the culture flask, and passages (<10) were employed for all experimental conditions. MTS Cell Titer 96™ aqueous cell proliferation assay was used to determine cell viability. […] For that, 1 × 10^4 cells were plated on a 96-well plate with a growth medium of 100 μL/well. […] Fifteen microliters of MTS reagent (with PMS) was then added to each well and incubated for 3 h in the dark. Absorbance was recorded at 490 nm using a microplate reader (Infinite® 200 PRO, TECAN, Männedorf, Switzerland). For each experiment, cells with DMSO media served as control, and cells with only culture medium and MTS reagent served as the blank.

alpha-glucosidase [1] = target: alpha-glucosidase; parameters: method as in PMID 31986026; details: cited from earlier work
[2] = DPPH radical scavenging assay
Experimental: After incubation in the dark for 30 min, the absorbance was read at 516 nm, using a UV–Vis spectrophotometer (Agilent Technologies, Santa Clara, CA, USA). Results were expressed as the half-maximal inhibitory concentration (IC50) in μg/mL.

alpha-glucosidase [3] = details: formation of p-nitrophenol; cited from earlier work
[4] = tested on: amyloid fibrils of glycated BSA (BSA/Fru + Glu); experiment: Inhibition of amyloid fibril formation, ThT assay (BSA/Fru + Glu); assay type: biochemical, bovine
Experimental: The formation of AGEs was measured after incubation of a system containing protein and carbohydrates. This assay was based on previous methods. The reaction system was obtained by adding 300 µL of plant extract or of the pure compound (at different concentrations), 150 µL D-fructose (200 mM), 150 µL of D-glucose (200 mM), and 300 µL of bovine serum albumin (BSA, 3 mg/mL) to a test tube. All these solutions, except plant extract, were dissolved in 0.05 M potassium phosphate buffer (pH 7.4) containing NaCl (100 mM) and NaN3 (0.02% w/v). The plant extract was prepared in a buffer containing 60% ethanol. The mixture was incubated in the dark at 37 °C for 7 days with constant stirring. After the incubation, 200 µL of the reaction mixture was transferred to a 96-well black plate, and fluorescent AGEs were measured using a microplate reader (Infinite® 200 PRO, TECAN, Männedorf, Switzerland) at λex = 360 and λem = 440 nm. […] The fluorescence readings for the experimental treatment were blanked against extract blanks to eliminate the baseline fluorescence of the sample. The percentage of the AGE inhibition and IC50 was calculated as described in Section 3.3.1.
The fibrillar state of modified BSA was determined with ThT as previously described. ThT is a probe that binds directly to amyloid fibrils to give a strong fluorescent signal and thus can be used to quantify β-amyloid due to protein glycation. […]

db/db mice = tested on: db/db mice; parameters: method as in PMID 25832644; details: PIC supplementation; cited from earlier work

Oc1cc(O)cc(/C=C/c2ccc(O)c(O)c2)c1 [PIC, 3,3′,4′,5-trans-tetrahydroxystilbene]
Antiglycation IC50, MGO (BSA/MGO fluorescent AGEs): 67.4 ± 4.6 ^b μg/mL | Glucose uptake in cultured myotubes (cultured myotubes): promoted glucose uptake | Reduction of cell viability of BEAS-2B cells (BEAS-2B cells): approximately 50% | IC50 (alpha-glucosidase [1]): 4.3 ± 0.07 µM | DPPH• IC50 ([2]; 30 min): 6.3 ± 1.3 µg/mL | IC50 ([2]; data in parenthesis are in μM): 25.8 µM | Mechanism of alpha-glucosidase inhibition (alpha-glucosidase [3]): non-competitive | Inhibition of the formation of β-amyloid fibrils in vitro ([4]; abstract, glycation system not specified): up to 100% | Inhibition of Amyloid Fibrils (%), Fructose + Glucose ([4]; highest obtained, PESE 200, PIC 200, AMG 100 µg/mL, BSA/Fru + Glu): 100 ± 5.3 ^a % | Fasting blood glucose, db/db mice (db/db mice): reduced fasting blood glucose
